Source: patent US6506772B1, “Substituted [1,2,4]triazolo[1,5a]pyridine derivatives with activity as adenosine receptor ligands” (Hoffmann-La Roche Inc., priority 2000, dated 2003)
Read-outs that look alike come from different tables or passages of the source.

Experiments:
[1] = target: T1, human adenosine A2A receptor (Homo sapiens, UniProt P29274); assay: Human adenosine A2A receptor [3H]-SCH-58261 binding assay
T1 construct: expressed in transfected cells; host or cells: CHO cells, Semliki Forest virus expression system; membrane preparation

[2] = target: T2, HA1 adenosine receptor (Homo sapiens, UniProt P30542); assay: Human adenosine A1 receptor affinity (Ki hA1); type: binding
T2 sequence (P30542 1-326): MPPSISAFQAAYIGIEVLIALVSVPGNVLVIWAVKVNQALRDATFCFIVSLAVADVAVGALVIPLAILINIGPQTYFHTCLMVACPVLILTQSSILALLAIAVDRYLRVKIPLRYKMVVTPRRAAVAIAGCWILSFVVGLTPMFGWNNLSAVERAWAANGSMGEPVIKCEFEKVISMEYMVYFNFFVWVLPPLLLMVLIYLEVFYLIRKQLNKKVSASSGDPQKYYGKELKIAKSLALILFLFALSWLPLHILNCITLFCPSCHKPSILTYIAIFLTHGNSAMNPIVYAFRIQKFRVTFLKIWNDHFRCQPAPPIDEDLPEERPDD

[3] = recombinant human A2A in CHO cell membranes, [3H]-SCH-58261, Cheng-Prussoff, read-out: Ki hA2A

T1 sequence (P29274 whole entry): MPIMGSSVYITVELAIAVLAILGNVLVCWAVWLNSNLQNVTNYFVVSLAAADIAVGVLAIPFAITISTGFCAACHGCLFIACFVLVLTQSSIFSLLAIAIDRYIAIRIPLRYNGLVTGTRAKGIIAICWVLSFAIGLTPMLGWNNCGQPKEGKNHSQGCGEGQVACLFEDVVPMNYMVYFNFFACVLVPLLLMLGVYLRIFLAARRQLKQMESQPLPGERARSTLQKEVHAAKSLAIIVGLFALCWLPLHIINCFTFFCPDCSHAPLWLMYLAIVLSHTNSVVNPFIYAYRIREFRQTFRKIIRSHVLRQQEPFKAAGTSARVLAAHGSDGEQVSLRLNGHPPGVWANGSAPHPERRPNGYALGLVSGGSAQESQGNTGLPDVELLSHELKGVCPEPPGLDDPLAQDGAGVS

| Structure (SMILES) | Ki ([1]; affinity to human adenosine A2A receptor, read-out: Ki HA2A) [nM] | selectivity (A1/A2a) ([1]; calculated ratio of the affinity to the HA1 receptor to the HA2a receptor) | Ki ([2]; affinity to human adenosine A1 receptor) [nM] | selectivity (A1/A2a) ([1]; ratio KiHA1 divided by KiHA2A) | Ki [1, 3] [nM] | Ki [2] [nM] |
| --- | --- | --- | --- | --- | --- | --- |
| C[C@@H]1CN(C(=O)c2cc(N)n3nc(-c4ccc(Br)o4)nc3c2)C[C@H](C)O1 [Example 360, [5-Amino-2-(5-bromo-furan-2-yl)-[1,2,4]triazolo[1,5-a]pyridin-7-yl]-(cis-2,6-dimethyl-morpholin-4-yl)-methanone] | 7.7 | 54.9 | 422 | – | – | – |
| Nc1cc(C(=O)N2CCCC3CCCCC32)cc2nc(-c3nccs3)nn12 (stereo not drawn) [Example 379, (5-Amino-2-thiazol-2-yl-[1,2,4]triazolo[1,5-a]pyridin-7-yl)-(octahydro-quinolin-1-yl)-methanone] | – | – | – | 17.2 | 33.5 | 577 |
| Nc1cc(C(=O)N2CCC3CCCCC3C2)cc2nc(-c3nccs3)nn12 (stereo not drawn) [Example 380, (5-Amino-2-thiazol-2-yl-[1,2,4]triazolo[1,5-a]pyridin-7-yl)-(octahydro-isoquinolin-2-yl)-methanone] | – | – | – | 24.8 | 76.9 | 1910 |
| CCN(CC)C(=O)C1CCCN(C(=O)c2cc(N)n3nc(-c4nccs4)nc3c2)C1 (stereo not drawn) [Example 381, 1-(5-Amino-2-thiazol-2-yl-[1,2,4]triazolo[1,5-a]pyridine-7-carbonyl)-piperidine-3-carboxylic acid diethylamide] | – | – | – | 11.4 | 180 | 2050 |
| C=CCN(C(=O)c1cc(N)n2nc(-c3nccs3)nc2c1)C1CCCC1 [Example 382, 5-Amino-2-thiazol-2-yl-[1,2,4]triazolo[1,5-a]pyridine-7-carboxylic acid allyl-cyclopentyl-amide] | – | – | – | 13.4 | 54.6 | 729 |

The next lines start with the values.

| Ki ([1]; affinity to human adenosine A2A receptor, read-out: Ki HA2A) [nM] | selectivity (A1/A2a) ([1]; calculated ratio of the affinity to the HA1 receptor to the HA2a receptor) | Ki ([2]; affinity to human adenosine A1 receptor) [nM] | selectivity (A1/A2a) ([1]; ratio KiHA1 divided by KiHA2A) | Ki [1, 3] [nM] | Ki [2] [nM] | Structure (SMILES) |
| --- | --- | --- | --- | --- | --- | --- |
| – | – | – | 13.9 | 81.2 | 1130 | CCN(C(=O)c1cc(N)n2nc(-c3nccs3)nc2c1)C1CCCCC1 [Example 383, 5-Amino-2-thiazol-2-yl-[1,2,4]triazolo[1,5-a]pyridine-7-carboxylic acid cyclohexyl-ethyl-amide] |
| – | – | – | 21.5 | 118 | 2540 | COC[C@@H]1CC[C@@H](COC)N1C(=O)c1cc(N)n2nc(-c3ccc(Br)o3)nc2c1 [Example 387, [5 -Amino-2-(5-bromo-furan-2-yl)-[1,2,4]triazolo[1,5-a]pyridin-7-yl]-(S,S-2,5-bis-methoxymethyl-pyrrolidin-1-yl)-methanone] |
| – | – | – | 12.4 | 26.7 | 330 | NC(=O)[C@@H]1CCCN1C(=O)c1cc(N)n2nc(-c3ccc(Br)o3)nc2c1 [Example 388, 1-[5-Amino-2-(5-bromo-furan-2-yl)-[1,2,4]triazolo[1,5-a]pyridine-7-carbonyl]-L-pyrrolidine-2-carboxylic acid amide] |
| – | – | – | 39.1 | 9.8 | 383 | NC(=O)[C@@H]1CCCN1C(=O)c1cc(N)n2nc(-c3ccc(Br)o3)nc2c1 [Example 389, 1-[5-Amino-2-(5-bromo-furan-2-yl)-[1,2,4]triazolo[1,5-a]pyridine-7-carbonyl]-D-pyrrolidine-2-carboxylic acid amide] |
| – | – | – | 98 | 8.3 | 813 | CN(C)C(=O)C1CCCN1C(=O)c1cc(N)n2nc(-c3ccc(Br)o3)nc2c1 (stereo not drawn) [Example 390, 1-[5-Amino-2-(5-bromo-furan-2-yl)-[1,2,4]triazolo[1,5-a]pyridine-7-carbonyl]-pyrrolidine-2-carboxylic acid dimethylamide] |
| – | – | – | 27.6 | 53 | 1460 | CC(=O)NC1CCN(C(=O)c2cc(N)n3nc(-c4ccc(Br)o4)nc3c2)C1 (stereo not drawn) [Example 391, N-{1-[5-Amino-2-(5-bromo-furan-2-yl)-[1,2,4]triazolo[1,5-a]pyridine-7-carbonyl]-pyrrolidin-3-yl}-acetamide] |
